Measured values reported in patent US11673925B2, “Oligopeptide with anti-inflammatory activity, preparation method, and application thereof” (NANJING UNIVERSITY OF FINANCE AND ECONOMICS, priority 2021, dated 2023).
Where a SMILES comes first, the peptide text is derived from it.

Test system: RAW 264.7 normal macrophages
Type: cell-based
Text: (4) detection of effects of respective components (WGPH-I, WGPH-II, and WGPH-III) on the proliferation activity of RAW 264.7 normal macrophages by a methyl thiazolyl tetrazolium (MTT) assay
RAW 264.7 macrophages in a logarithmic growth phase are taken and prepared into a cell suspension of 3×10^4 cells/mL in a RPIM 1640 culture medium containing 10% FBS. Sample wells are set in a 96-well plate (also referred to as 96-well tissue culture plates), and 100 microliters (μL) of cell suspension are added to each sample well, and the cells are cultured in a cell incubator for 12 h to make the cells adhere to the wall. After removing the culture medium in the sample wells, different components WGPH-I (>3 kDa), WGPH-II (1˜3 kDa), and WGPH-III (<1 kDa) are dissolved in RPIM 1640 culture medium containing 10% FBS to prepare different concentrations of oligopeptide culture medium (0, 50, 100, 200, and 300 μg/mL) respectively, and then added to respective sample wells, 100 μL per well. A blank well is set, and compared with the sample wells, there is no cell, with 100 μL PBS instead of the oligopeptide culture medium. A control well is set, compared with the sample wells, there is cells, with 100 μL PBS instead of oligopeptide culture medium. […] The absorbance is measured at a wavelength of 570 nanometers (nm) in the microplate reader. […]

C[C@H](N)C(=O)N1CCC[C@H]1C(=O)N[C@@H](CCC(=O)O)C(=O)N1CCC[C@H]1C(=O)N[C@@H](CCC(=O)O)C(=O)N1CCC[C@H]1C(=O)N[C@@H](C)C(=O)N[C@@H](Cc1ccccc1)C(=O)O [oligopeptide] (H-APEPEPAF-OH)
effect on the proliferation activity of macrophages: no effect
